According to ChEMBL document CHEMBL1126913, “A homologous series of permanently charged 1,4-dihydropyridines: novel probes designed to localize drug binding sites on ion channels” (J Med Chem, 1993):

Target: Voltage-dependent L-type calcium channel subunit alpha-1C (Rattus norvegicus, UniProt P22002)
Assay: Inhibition of [3H](+)-PN200-110 binding to L-type calcium channel 1,4-DHP binding site of rat ventricular myocytes
Assay type: cell-based, Ventricular myocyte

Sequence of Voltage-dependent L-type calcium channel subunit alpha-1C (P22002 whole entry): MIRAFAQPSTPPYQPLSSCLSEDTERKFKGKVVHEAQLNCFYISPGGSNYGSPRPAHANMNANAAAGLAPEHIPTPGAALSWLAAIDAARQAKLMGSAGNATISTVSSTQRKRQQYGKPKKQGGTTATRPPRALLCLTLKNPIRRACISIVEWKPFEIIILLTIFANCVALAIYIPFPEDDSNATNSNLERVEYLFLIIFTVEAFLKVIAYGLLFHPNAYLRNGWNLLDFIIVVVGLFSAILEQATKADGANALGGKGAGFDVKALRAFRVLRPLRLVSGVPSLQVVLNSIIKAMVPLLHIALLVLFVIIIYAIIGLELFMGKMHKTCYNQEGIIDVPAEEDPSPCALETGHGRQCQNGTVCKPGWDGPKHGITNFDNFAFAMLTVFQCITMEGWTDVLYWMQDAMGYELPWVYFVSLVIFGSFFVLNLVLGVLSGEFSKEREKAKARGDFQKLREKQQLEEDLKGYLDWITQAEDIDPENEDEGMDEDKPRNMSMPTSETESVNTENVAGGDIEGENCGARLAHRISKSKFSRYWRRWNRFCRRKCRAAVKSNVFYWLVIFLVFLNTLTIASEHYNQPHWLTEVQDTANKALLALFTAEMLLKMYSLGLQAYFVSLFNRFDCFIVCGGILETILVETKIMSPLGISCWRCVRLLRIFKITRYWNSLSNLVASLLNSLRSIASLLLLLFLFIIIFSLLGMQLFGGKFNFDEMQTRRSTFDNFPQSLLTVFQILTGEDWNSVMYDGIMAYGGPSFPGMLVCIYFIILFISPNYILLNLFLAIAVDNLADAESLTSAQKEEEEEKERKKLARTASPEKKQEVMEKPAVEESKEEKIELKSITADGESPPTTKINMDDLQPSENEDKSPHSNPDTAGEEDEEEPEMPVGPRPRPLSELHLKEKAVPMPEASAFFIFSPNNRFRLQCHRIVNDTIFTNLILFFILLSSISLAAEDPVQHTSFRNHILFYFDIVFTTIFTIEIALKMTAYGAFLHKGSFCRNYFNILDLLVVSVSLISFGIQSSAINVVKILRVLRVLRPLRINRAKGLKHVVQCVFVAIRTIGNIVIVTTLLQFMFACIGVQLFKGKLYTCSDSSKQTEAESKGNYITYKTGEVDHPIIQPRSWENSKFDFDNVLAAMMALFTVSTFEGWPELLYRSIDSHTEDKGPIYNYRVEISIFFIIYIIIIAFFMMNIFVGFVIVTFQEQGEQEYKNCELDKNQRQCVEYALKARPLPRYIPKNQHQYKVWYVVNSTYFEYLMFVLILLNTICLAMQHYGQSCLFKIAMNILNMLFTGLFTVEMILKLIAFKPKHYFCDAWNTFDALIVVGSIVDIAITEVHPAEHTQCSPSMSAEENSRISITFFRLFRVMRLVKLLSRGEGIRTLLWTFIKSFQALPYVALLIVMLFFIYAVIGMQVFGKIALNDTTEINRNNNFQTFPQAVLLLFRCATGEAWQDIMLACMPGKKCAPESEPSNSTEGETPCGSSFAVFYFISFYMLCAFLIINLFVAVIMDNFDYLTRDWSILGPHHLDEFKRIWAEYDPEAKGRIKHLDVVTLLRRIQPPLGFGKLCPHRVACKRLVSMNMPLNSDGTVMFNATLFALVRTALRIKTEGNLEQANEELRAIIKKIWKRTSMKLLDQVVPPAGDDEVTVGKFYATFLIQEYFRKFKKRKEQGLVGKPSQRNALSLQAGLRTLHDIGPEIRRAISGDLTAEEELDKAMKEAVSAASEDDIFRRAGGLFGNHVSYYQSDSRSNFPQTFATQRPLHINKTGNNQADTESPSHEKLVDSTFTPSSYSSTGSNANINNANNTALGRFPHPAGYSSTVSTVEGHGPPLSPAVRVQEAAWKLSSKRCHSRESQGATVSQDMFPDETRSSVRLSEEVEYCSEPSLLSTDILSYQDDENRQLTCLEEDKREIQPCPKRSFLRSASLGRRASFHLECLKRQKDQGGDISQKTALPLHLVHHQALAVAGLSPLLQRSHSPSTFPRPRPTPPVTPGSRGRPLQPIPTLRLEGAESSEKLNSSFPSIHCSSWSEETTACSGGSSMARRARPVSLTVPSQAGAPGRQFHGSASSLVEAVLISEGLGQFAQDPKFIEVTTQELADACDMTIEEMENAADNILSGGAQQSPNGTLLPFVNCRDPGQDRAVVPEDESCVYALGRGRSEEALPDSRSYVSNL

## CCCCCCCCCCCCCCOC(=O)C1=C(C)NC(C)=C(C(=O)OC)C1c1ccccc1C(F)(F)F (configuration not stated)
  Ki: 15.7 nM

## COC(=O)C1=C(C)NC(C)=C(C(=O)OCC[N+](C)(C)C)C1c1ccccc1C(F)(F)F (configuration not stated)
  Ki: 33.2 nM
